Assay results: the supplement of paper PMC4862054

Key:
Conditions in all cases: incubation time: 72 h
[1] = tested on: HCC1937; assay: drug sensitivity score (DSS), CellTiter-Glo (DSS (AUC-based score)); higher = stronger drug effect (viability inhibition or cytotoxicity); extreme values may be limits of the assay
Method in brief: (§1)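 Breast cancer cell lines (20 µl suspension) were seeded into 384-well plates holding compound at 5 concentrations in 10-fold steps over a compound-specific 10,000-fold range, then incubated 72 h. CellTox Green fluorescence (485/520 nm) was read first, then CellTiter-Glo luminescence after 10 min at room temperature. Each plate was normalised to 0.1 % DMSO and a positive kill control. The drug sensitivity score was calculated from the area under the fitted dose-response curve.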

[2] = tested on: CAL-51; assay: as above
Method in brief: as §1

[3] = tested on: HCC1143; assay: as above
Method in brief: as §1

[4] = tested on: MDA-MB-436; assay: as above
Method in brief: as §1

[5] = tested on: MDA-MB-453; assay: as above
Method in brief: as §1

[6] = tested on: HDQ-P1; assay: as above
Method in brief: as §1

[7] = tested on: CAL-120; assay: as above
Method in brief: as §1

[8] = tested on: DU-4475; assay: as above
Method in brief: as §1

[9] = tested on: MDA-MB-231; assay: as above
Method in brief: as §1

[10] = tested on: Hs578T; assay: as above
Method in brief: as §1

[11] = tested on: CAL-148; assay: as above
Method in brief: as §1

[12] = tested on: BT-474; assay: as above
Method in brief: as §1

[13] = tested on: MDA-MB-468; assay: as above
Method in brief: as §1

[14] = tested on: BT-549; assay: as above
Method in brief: as §1

[15] = tested on: MCF-10A; assay: as above
Method in brief: as §1

[16] = tested on: SK-BR-3; assay: as above
Method in brief: as §1

[17] = tested on: CAL-85-1; assay: as above
Method in brief: as §1

[18] = tested on: HCC1599; assay: as above
Method in brief: as §1

[19] = tested on: MFM-223; assay: as above
Method in brief: as §1

[20] = tested on: MDA-MB-436; assay: normalised viability (% of control), CellTiter-Blue; higher = more viable cells (about 100 = DMSO control)
Method in brief: (§2)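 Vehicle (100) and a positive kill control (0) anchored the normalisation of each plate, and Z'-factor was used for quality control. Breast cancer cell lines in 20 µl suspension were incubated 72 h over compound in 5 µl medium in 384-well plates, followed by CellTiter-Blue at 560/590 nm. The value is normalised viability at a single listed concentration of the series.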

[21] = tested on: HDQ-P1; assay: as above
Method in brief: as §2

[22] = tested on: CAL-120; assay: as above
Method in brief: as §2

[23] = tested on: Hs578T; assay: as above
Method in brief: as §2

[24] = tested on: BT-549; assay: as above
Method in brief: as §2

[25] = tested on: CAL-85-1; assay: as above
Method in brief: as §2

In the case of `CN[C@@H](C)C(=O)N[C@H]1CN(C(=O)CC(C)C)CC[C@H]2CC[C@@H](C(=O)NC(c3ccccc3)c3ccccc3)N2C1=O` [AT-406], the drug sensitivity score [1] is reported as 0, the drug sensitivity score [2] is reported as 0 and the drug sensitivity score [3] is reported as 0. For the same compound, the drug sensitivity score [4] was 0, the drug sensitivity score [5] was 4.36 and the drug sensitivity score [6] was 2.18. The drug sensitivity score [7] was 0, the drug sensitivity score [8] was 0 and the drug sensitivity score [9] was 16. For the same compound, the drug sensitivity score [10] was 0, the drug sensitivity score [11] was 0 and the drug sensitivity score [12] was 20.1. For the same compound, the drug sensitivity score [13] was 4.99, the drug sensitivity score [14] was 17.3 and the drug sensitivity score [15] was 0. It also gave a drug sensitivity score [16] of 0, a drug sensitivity score [17] of 7.99 and a drug sensitivity score [18] of 0. It also gave a drug sensitivity score [19] of 0.

Compound `CCn1c(C(=O)N(C2CC2)C2CC2)cc2c3c(ncn3C)c(Nc3cc(C)n(C)n3)nc21` has a drug sensitivity score [1] of 0, a drug sensitivity score [2] of 0 and a drug sensitivity score [3] of 0. The drug sensitivity score [4] was 0, the drug sensitivity score [5] was 0 and the drug sensitivity score [6] was 0. For the same compound, the drug sensitivity score [7] was 0, the drug sensitivity score [8] was 0 and the drug sensitivity score [9] was 0. The drug sensitivity score [10] was 0, the drug sensitivity score [11] was 0 and the drug sensitivity score [12] was 0. For the same compound, the drug sensitivity score [13] was 0.0233, the drug sensitivity score [14] was 0 and the drug sensitivity score [15] was 0. For the same compound, the drug sensitivity score [16] was 0, the drug sensitivity score [17] was 0 and the drug sensitivity score [18] was 0. It also gave a drug sensitivity score [19] of 0.

Compound `CN(C)C(=N)NC(=N)N` [Metformin] has a drug sensitivity score [1] of 0, a drug sensitivity score [2] of 6.92 and a drug sensitivity score [3] of 0. It also gave a drug sensitivity score [4] of 0, a drug sensitivity score [5] of 0 and a drug sensitivity score [6] of 0. The drug sensitivity score [7] was 0, the drug sensitivity score [8] was 0 and the drug sensitivity score [9] was 0. It also gave a drug sensitivity score [10] of 0, a drug sensitivity score [11] of 0 and a drug sensitivity score [12] of 0. It also gave a drug sensitivity score [13] of 0.63, a drug sensitivity score [14] of 0 and a drug sensitivity score [15] of 0. It also gave a drug sensitivity score [16] of 0, a drug sensitivity score [17] of 0 and a drug sensitivity score [18] of 0. It also gave a drug sensitivity score [19] of 0.

With `CC[C@H](CO)Nc1nc(NCc2ccccc2)c2ncn(C(C)C)c2n1` [Roscovitine] the normalised viability ([20]; 10 nM) was 107%, the normalised viability ([20]; 1000 nM) was 92.7% and the normalised viability ([20]; 10000 nM) was 79.4%. For the same compound, the normalised viability ([21]; 3 nM) was 101%, the normalised viability ([21]; 30 nM) was 103% and the normalised viability ([21]; 100 nM) was 98.3%. The normalised viability ([22]; 10 nM) was 82.7%, the normalised viability ([22]; 1000 nM) was 86.1% and the normalised viability ([22]; 10000 nM) was 76.3%. For the same compound, the normalised viability ([23]; 10 nM) was 111%, the normalised viability ([23]; 1000 nM) was 91.4% and the normalised viability ([23]; 10000 nM) was 42.6%. It also gave a normalised viability ([24]; 10 nM) of 83.8%, a normalised viability ([24]; 1000 nM) of 84.4% and a normalised viability ([24]; 10000 nM) of 76.4%. It also gave a normalised viability ([25]; 3 nM) of 93.3%, a normalised viability ([25]; 30 nM) of 88.8% and a normalised viability ([25]; 100 nM) of 90.8%.

For `Cc1nc(C(=O)NCC(=O)O)c(O)c2ccc(Oc3ccccc3)cc12` [FG-4592], the drug sensitivity score [1] was 0, the drug sensitivity score [2] was 0 and the drug sensitivity score [3] was 0. It also gave a drug sensitivity score [4] of 0, a drug sensitivity score [5] of 0 and a drug sensitivity score [6] of 0. For the same compound, the drug sensitivity score [7] was 0, the drug sensitivity score [8] was 0 and the drug sensitivity score [9] was 0. It also gave a drug sensitivity score [10] of 0, a drug sensitivity score [11] of 0 and a drug sensitivity score [12] of 0. For the same compound, the drug sensitivity score [13] was 0, the drug sensitivity score [14] was 0 and the drug sensitivity score [15] was 0. For the same compound, the drug sensitivity score [16] was 0, the drug sensitivity score [17] was 0 and the drug sensitivity score [18] was 0. The drug sensitivity score [19] was 0.

`O=C(O)CNC(=O)c1c(O)c2ccccc2n(Cc2ccccc2)c1=O` [IOX-2] was tested, and the drug sensitivity score [1] was 0, the drug sensitivity score [2] was 3.96 and the drug sensitivity score [3] was 0. The drug sensitivity score [4] was 0, the drug sensitivity score [5] was 0 and the drug sensitivity score [6] was 0. The drug sensitivity score [7] was 0, the drug sensitivity score [8] was 0 and the drug sensitivity score [9] was 0. It also gave a drug sensitivity score [10] of 0, a drug sensitivity score [11] of 0 and a drug sensitivity score [12] of 0. It also gave a drug sensitivity score [13] of 0, a drug sensitivity score [14] of 0.135 and a drug sensitivity score [15] of 0. It also gave a drug sensitivity score [16] of 0, a drug sensitivity score [17] of 0 and a drug sensitivity score [18] of 0. It also gave a drug sensitivity score [19] of 0.

Work on `C=CCN(/C=C1/C(=O)O[C@H](COC)[C@@]2(C)C1=C(O)C(=O)C1=C2[C@H](OC(C)=O)C[C@]2(C)C(=O)CC[C@@H]12)CC=C` [PX-866] yielded a normalised viability ([20]; 10 nM) of 93.3%, a normalised viability ([20]; 1000 nM) of 90.2% and a normalised viability ([20]; 10000 nM) of 62%. For the same compound, the normalised viability ([21]; 3 nM) was 113%, the normalised viability ([21]; 30 nM) was 128% and the normalised viability ([21]; 100 nM) was 114%. For the same compound, the normalised viability ([22]; 10 nM) was 94.4%, the normalised viability ([22]; 1000 nM) was 85.9% and the normalised viability ([22]; 10000 nM) was 71.3%. It also gave a normalised viability ([23]; 10 nM) of 120%, a normalised viability ([23]; 1000 nM) of 89.4% and a normalised viability ([23]; 10000 nM) of 40.1%. For the same compound, the normalised viability ([24]; 10 nM) was 87.8%, the normalised viability ([24]; 1000 nM) was 81.9% and the normalised viability ([24]; 10000 nM) was 57%. It also gave a normalised viability ([25]; 3 nM) of 111%, a normalised viability ([25]; 30 nM) of 97.4% and a normalised viability ([25]; 100 nM) of 102%.

`CC(C)n1cnc2c(NCCc3ccc(O)cc3)nc(-c3csc4ccccc34)nc21` [StemRegenin 1] showed a drug sensitivity score [1] of 1.53, a drug sensitivity score [2] of 0 and a drug sensitivity score [3] of 0. The drug sensitivity score [4] was 0.344, the drug sensitivity score [5] was 0.255 and the drug sensitivity score [6] was 1.2. The drug sensitivity score [7] was 0, the drug sensitivity score [8] was 0 and the drug sensitivity score [9] was 0. It also gave a drug sensitivity score [10] of 0, a drug sensitivity score [11] of 0 and a drug sensitivity score [12] of 0. It also gave a drug sensitivity score [13] of 0.986, a drug sensitivity score [14] of 3.44 and a drug sensitivity score [15] of 0. It also gave a drug sensitivity score [16] of 0, a drug sensitivity score [17] of 0 and a drug sensitivity score [18] of 0. The drug sensitivity score [19] was 1.58.

With `COc1c2occc2cc2ccc(=O)oc12` [Methoxsalen] the normalised viability ([20]; 10 nM) was 90.6%, the normalised viability ([20]; 1000 nM) was 87.1% and the normalised viability ([20]; 10000 nM) was 93.8%. It also gave a normalised viability ([21]; 3 nM) of 115%, a normalised viability ([21]; 30 nM) of 104% and a normalised viability ([21]; 100 nM) of 105%. It also gave a normalised viability ([22]; 10 nM) of 99.1%, a normalised viability ([22]; 1000 nM) of 101% and a normalised viability ([22]; 10000 nM) of 104%. It also gave a normalised viability ([23]; 10 nM) of 55.3%, a normalised viability ([23]; 1000 nM) of 138% and a normalised viability ([23]; 10000 nM) of 110%. The normalised viability ([24]; 10 nM) was 90.9%, the normalised viability ([24]; 1000 nM) was 104% and the normalised viability ([24]; 10000 nM) was 82.9%. For the same compound, the normalised viability ([25]; 3 nM) was 92.9%, the normalised viability ([25]; 30 nM) was 92.6% and the normalised viability ([25]; 100 nM) was 92.5%.
